The source of these data is patent EP0215357B1, “Pharmaceutical preparation for the treatment of hypertension” (HOECHST AKTIENGESELLSCHAFT, priority 1985, dated 1987).

The subject of this assay is spontan hypertensive Ratten (Wistar-Kyoto). The assay can be described thus: Urine excretion over 5 hours in spontaneously hypertensive rats (metabolic cages). The format is in vivo, Ratte. The note with it: mean ± spread. How it is done: 10 spontan hypertensive Ratten (Wistar-Kyoto) wurden instrumentiert und während der Versuche in Stoffwechselkäfigen gehalten. Ramipril (=A) (1 mg/kg) und Piretanid (=B) (1,2 und 16 mg/kg) werden in Tylose oral mit Magensonde verabreicht. Die Kontrollgruppe erhielt nur Tylose. Die ausgeschiedene Urinmenge nach 5 Stunden, die Natriumausscheidung nach 5 Stunden sowie der arterielle Mitteldruck wurden bestimmt. Tabelle 1

For the compound `CCOC(=O)[C@H](CCc1ccccc1)N[C@@H](C)C(=O)N1[C@H](C(=O)O)C[C@@H]2CCC[C@@H]21` [A, Ramipril], the Urinmenge (1 mg/kg oral in Tylose) is on record as 760±185 µ1/100g.5h.
`NS(=O)(=O)c1cc(C(=O)O)cc(N2CCCC2)c1Oc1ccccc1` [B, Piretanid]: the Urinmenge is given as 900±180 µ1/100g.5h (1 mg/kg oral in Tylose), 1470±140 µ1/100g.5h (2 mg/kg oral in Tylose) and 3520±405 µ1/100g.5h (16 mg/kg oral in Tylose).
